The source of these data is US20190201721A1, “ORAL CARE PRODUCTS AND METHODS COMPRISING HYDROXYAPATITE BINDING PROTEINS” (BASF SE, priority 2015, published 2019).

B1: AFP4-His6 (protein)
chain: MRFIVSLLAFTAAATATALPASAAKNAKLATSAAFAKQAEGTTCNVGSIACCNSPAETNNDSLLSGLLGAGLLNGLSGNTGSACAKASLIDQLGLLALVDHTEEGPVCKNIVACCPEGTTNCVAVDNAGAGTKAE
modifications: His6 tag
B2: IPTLPSS-GGG-AFP4-His6 (protein)
chain: MKFSIAAAVVAFAASVAALPPAHDSQFAGNGVGNKGNSNVKFPVPENVTVKQASDKCGDQAQLSCCNKATYAGDTTTVDEGLLSGALSGLIGAGSGAEGLGLFDQCSKLDVAVLIGIQDLVNQKCKQNIACCQNSPSSADGNLIGVGLPCVALGSIL
notes: fusion of HABP peptide IPTLPSS via GGG spacer to antifreeze protein AFP4-His6

T1 sequence (Q7Z2W7 whole entry): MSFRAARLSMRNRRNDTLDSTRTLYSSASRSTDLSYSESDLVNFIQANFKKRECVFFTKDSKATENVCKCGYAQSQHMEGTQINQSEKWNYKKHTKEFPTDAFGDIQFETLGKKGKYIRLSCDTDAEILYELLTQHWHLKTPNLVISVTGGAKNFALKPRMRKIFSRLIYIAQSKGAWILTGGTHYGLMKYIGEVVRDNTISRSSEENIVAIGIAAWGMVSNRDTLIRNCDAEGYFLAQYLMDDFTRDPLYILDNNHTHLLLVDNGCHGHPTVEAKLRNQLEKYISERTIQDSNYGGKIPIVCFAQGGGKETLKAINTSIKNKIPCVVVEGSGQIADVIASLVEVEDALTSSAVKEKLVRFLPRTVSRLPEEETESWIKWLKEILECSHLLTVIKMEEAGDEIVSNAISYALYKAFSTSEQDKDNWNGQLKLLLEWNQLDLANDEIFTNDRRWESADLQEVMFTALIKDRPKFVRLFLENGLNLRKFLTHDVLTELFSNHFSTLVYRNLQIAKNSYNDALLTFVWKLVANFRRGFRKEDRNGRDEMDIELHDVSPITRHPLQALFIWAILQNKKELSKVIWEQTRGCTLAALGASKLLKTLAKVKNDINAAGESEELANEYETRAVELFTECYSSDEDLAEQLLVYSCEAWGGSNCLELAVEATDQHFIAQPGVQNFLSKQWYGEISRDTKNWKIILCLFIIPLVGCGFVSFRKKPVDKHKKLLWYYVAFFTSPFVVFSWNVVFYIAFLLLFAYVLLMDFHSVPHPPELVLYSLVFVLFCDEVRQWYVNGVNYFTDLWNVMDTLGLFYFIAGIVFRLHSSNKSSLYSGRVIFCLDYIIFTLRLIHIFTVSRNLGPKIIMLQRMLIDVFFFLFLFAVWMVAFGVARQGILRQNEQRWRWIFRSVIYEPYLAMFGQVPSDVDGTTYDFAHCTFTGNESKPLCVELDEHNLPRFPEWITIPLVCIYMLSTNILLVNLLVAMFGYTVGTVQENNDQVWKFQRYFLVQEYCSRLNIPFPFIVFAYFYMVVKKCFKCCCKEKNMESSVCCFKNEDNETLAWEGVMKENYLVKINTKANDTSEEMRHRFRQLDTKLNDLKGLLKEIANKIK

Test system in the first experiment: not listed separately
Description: Binding assay of carboxyfluorescein-labeled peptides/proteins to hydroxyapatite powder. The conditions noted are these: 2 μM N-terminal labeled peptide/protein, 10 mg hydroxyapatite powder, HBS-T buffer, 2 h, 37° C. The procedure: i. Petide/Protein Labeling For binding studies 5(6)-carboxyfluorescein was conjugated to the N-terminus of the peptides/proteins by using the corresponding succinimidyl ester (Invitrogen, Darmstadt, Germany). The labeling reaction was performed according to the manufactures protocol (Invitrogen, Darmstadt, Germany). After conjugation, the labeled peptide/protein was purified either with a PD-10 desalting column for proteins larger than 5 kDa or a PD MidiTrap G-10 for smaller proteins (GE Healthcare, Buckinghamshire, UK) or for peptides by HPLC on RP18 column. ii. Peptide/Protein Binding For the binding experiments N-terminal labeled peptides/proteins were used in a final concentration of 2 μM. The binding was carried out in HBS-T buffer (150 mM NaCl, 50 mM HEPES pH 7.5, 0.1% Tween 20). The peptides/proteins were exposed to 10 mg hydroxyapatite powder (Fluke) for 2 h at 37° C. After five wash steps with HBS-T buffer the bound peptide/protein was visualized by fluorescence microscopy with the appropriate filters (excitation 475/50; emission 525/50). To quantify the binding, the fluorescence intensity of the solution before (Fi) and after (Ff) binding was measured with a Fluostar Galaxy (BMG, Ortenberg, Germany) and the amount of bound peptide/protein was estimated (cbound=[1−(Ff/Fi)]×c0). The peptide LIKHILHRL, which was described as a non-binding peptide to hydroxyapatite, was used as a negative control [Yarbrough D K, Hagerman E, Eckert R, He J, Choi H, Cao N, et al. Specific binding and mineralization of calcified surfaces by small peptides. Calcif Tissue Int 2010; 86(1):58-66.]. All binding experiments were carried out as triplicates. Evaluation: +: 30-50% bound peptide on HAP; ++: 50-100% bound peptide on HAP
Consider B1, for which the “bound peptide on HAP” value is listed as “(35%)”. Same read-out and setting: in the case of B2 it was “(60%)”.

The experiment is the same for the next values; noted with them: 2 μM N-terminal labeled peptide/protein, 10 mg hydroxyapatite powder, HBS-T buffer, 2 h, 37° C., triplicates.
As to IDDYTRA [SEQ ID NO: 1], the “bound peptide on HAP (evaluation class)” value was “++ (++: 50-100% bound peptide on HAP)”.

For YQGASEN [SEQ ID NO: 8], the “bound peptide on HAP (evaluation class)” value is listed as “++ (++: 50-100% bound peptide on HAP)”. Still for that read-out and setting: to SPSTHWK [SEQ ID NO: 3] belongs “+ (+: 30-50% bound peptide on HAP)”. Same read-out and setting: to RILITIP [SEQ ID NO: 10] belongs “+ (+: 30-50% bound peptide on HAP)”; to GSPATAA [SEQ ID NO: 4], “+ (+: 30-50% bound peptide on HAP)”. The same measure, in the same setting: in the case of TLPASSV [SEQ ID NO: 16] it was “++ (++: 50-100% bound peptide on HAP)”; in that of TTSTRHI [SEQ ID NO: 12], “+ (+: 30-50% bound peptide on HAP)”. Turning to YPVTPSI [SEQ ID NO: 6], the “bound peptide on HAP (evaluation class)” value was “+ (+: 30-50% bound peptide on HAP)”. The same measure, in the same setting: to IPTLPSS [SEQ ID NO: 7] belongs “++ (++: 50-100% bound peptide on HAP)”; to IPITNLR [SEQ ID NO: 11], “+ (+: 30-50% bound peptide on HAP)”.

Take GKVQAQS [SEQ ID NO: 5]: the “bound peptide on HAP (evaluation class)” value is “+ (+: 30-50% bound peptide on HAP)”.

With HPPLHHA [SEQ ID NO: 2], the “bound peptide on HAP (evaluation class)” value is reported as “+ (+: 30-50% bound peptide on HAP)”. Same read-out and setting: in the case of SWGTQTD [SEQ ID NO: 15] it was “+ (+: 30-50% bound peptide on HAP)”; in that of MQTVEVT [SEQ ID NO: 14], “+ (+: 30-50% bound peptide on HAP)”; in that of NERALTL [SEQ ID NO: 13], “+ (+: 30-50% bound peptide on HAP)”. The same measure, in the same setting: in the case of EHITTSN [SEQ ID NO: 9] it was “+ (+: 30-50% bound peptide on HAP)”. Still for that read-out and setting: to B1 belongs “+ (+: 30-50% bound peptide on HAP)”.

As to B2, the “bound peptide on HAP (evaluation class)” value is reported as “++ (++: 50-100% bound peptide on HAP)”.

Test system in the next experiment: not listed separately
Description: Binding to and release from calcium phosphate discs (HA-discs) after saliva incubation. The conditions noted are these: read out by TRPM8 activation of the supernatant. On the procedure:
The hybrid molecules of example 4 (5 μM in Tris buffer pH 8) were incubated with calcium phosphate discs (HA-discs from Himed) at 37° C. for 1 hr. Unbound molecules were removed by washing 3-times with Tris buffer. The coated calcium phosphate discs were incubated with buffer as a control and in parallel with pooled human saliva (5 donors; 37° C., for 2 hrs). The supernatant was centrifuged and evaluated for cooling activity by specific activation of human cool receptor TRPM8.
The agonisation or antagonisation of the receptor was quantified by means of a Ca^2+-sensitive dye (e.g. FURA, Fluo-4, etc.). Agonists on their own bring about an increase in the Ca^2+-signal; antagonists in the presence of, for example, menthol bring about a reduction in the Ca^2+-signal (in each case detected by means of the Fluo-4 dye, which due to the Ca^2+ has other fluorescent properties). To begin with, in a manner known per se, in cell culture flasks a fresh culture of transformed HEK cells was prepared. […] Addition of the test samples in quantities of 50 μl/well and measurement of the change in fluorescence (e.g. in the FLIPR assay device, Molecular Devices or NovoStar, BMG) at 485 nm excitation, 520 nm emission, and evaluation of the effective strength of the various substances/concentrations and determination of the EC50 values. […]
For `CC1CCC(C(C)C)C(O)C1` (centres unmarked) [menthol], the “bound on hydroxyapatite / released after incubation with human saliva” value is “nothing is bound on hydroxyapatite”.

Another experiment has as its target T1, human TRPM8 receptor (Homo sapiens, UniProt Q7Z2W7).
T1 construct: expressed in transfected cells; host or cells: HEK293-TRPM8 (transformed HEK cells, tetracycline-inducible expression)
Description: Assay on TRPM8 activation (HEK293-TRPM8 cells, Ca2+-sensitive dye Fluo-4). The experiment is classed as cell-based. The conditions noted are these: before and after incubation with saliva.
Description: The HABP peptide—cooling compound-hybrid molecules of example 4 (1 μM in Tris buffer pH 8) were incubated with pooled human saliva (5 donors) 1:1 or as reference 1:1 in Tris buffer pH 8; 37° C., for 2 hrs at 37° C. Samples were frozen until evaluation in a cell based assay for activation of the human TRPM8 receptor.
The agonisation or antagonisation of the receptor was quantified by means of a Ca^2+-sensitive dye (e.g. FURA, Fluo-4, etc.). […] To begin with, in a manner known per se, in cell culture flasks a fresh culture of transformed HEK cells was prepared. […] Addition of the test samples in quantities of 50 μl/well and measurement of the change in fluorescence (e.g. in the FLIPR assay device, Molecular Devices or NovoStar, BMG) at 485 nm excitation, 520 nm emission, and evaluation of the effective strength of the various substances/concentrations and determination of the EC50 values.
Turning to `CC1CCC(C(C)C)C(O)C1` (centres unmarked) [menthol], the “bioactivity on the human cool receptor TRPM8” value was “bioactive”.

Test system in another experiment: not given
Experiment: not given
The conditions noted are these: described by Yarbrough et al. 2010; used as negative control; cited from earlier work.
Turning to LIKHILHRL, the “binding to hydroxyapatite as described in literature” value is on record as “non-binding”.
